From ChEMBL document CHEMBL1142619, “Three new flavonol galloylglycosides from leaves of Acacia confusa” (J Nat Prod, 2000)
Values after ≈ are worked out from the molar mass of the structure shown.

system: Artemia salina; assay: Toxicity in Artemia salina assessed as inhibition of egg hatching after 48 hrs; type: organism-based

SMILES | IC50 [µg/mL]
C[C@H]1O[C@H](Oc2c(-c3cc(O)c(O)c(O)c3)oc3cc(O)cc(O)c3c2=O)[C@@H](O)[C@@H](OC(=O)c2cc(O)c(O)c(O)c2)[C@@H]1O | 64 (≈ 104 µM)
COc1cc(O)c2c(=O)c(O[C@H]3O[C@H](C)[C@@H](O)[C@H](O)[C@@H]3OC(=O)c3cc(O)c(O)c(O)c3)c(-c3cc(O)c(O)c(O)c3)oc2c1 | 89 (≈ 141 µM)
COc1cc(O)c2c(=O)c(O[C@H]3O[C@H](C)[C@@H](O)[C@H](OC(=O)c4cc(O)c(O)c(O)c4)[C@@H]3O)c(-c3cc(O)c(O)c(O)c3)oc2c1 | 50 (≈ 79.3 µM)
C[C@H]1O[C@H](Oc2c(-c3cc(O)c(O)c(O)c3)oc3cc(O)cc(O)c3c2=O)[C@@H](OC(=O)c2cc(O)c(O)c(O)c2)[C@@H](O)[C@@H]1O | 75 (≈ 122 µM)
